Read-outs that look alike come from different tables or passages of the source.
Key:
CYP3A4 [1] = biological target: T1, CYP3A4 (Homo sapiens, UniProt P08684); conditions: Table 4; Yu et al.; cited from earlier work
[2] = mouse; Table 4; Yu et al.; cited from earlier work
CYP2C19 [3] = biological target: T2, CYP2C19 (Homo sapiens, UniProt P33261); conditions: Table 4; Yu et al.; cited from earlier work
CYP2D6 [4] = biological target: T3, CYP2D6 (Homo sapiens, UniProt P10635); conditions: Table 4; Yu et al.; cited from earlier work
[5] = pH 7.4; mean ± SD; Table 4; Yu et al.; cited from earlier work
[6] = mouse; Table 4; Yu et al.; cited from earlier work; remark: listed apart in the source
[7] = rat; Table 4; Yu et al.; cited from earlier work
[8] = human; Table 4; Yu et al.; cited from earlier work
[9] = Table 4; Yu et al.; cited from earlier work
[10] = human; Table 4; Yu et al.; cited from earlier work; remark: listed apart in the source
[11] = rat; Table 4; Yu et al.; cited from earlier work; remark: listed apart in the source
CYP1A2 [12] = biological target: T4, CYP1A2 (Homo sapiens, UniProt P05177); conditions: Table 4; Yu et al.; cited from earlier work
T4 sequence (P05177 1-516): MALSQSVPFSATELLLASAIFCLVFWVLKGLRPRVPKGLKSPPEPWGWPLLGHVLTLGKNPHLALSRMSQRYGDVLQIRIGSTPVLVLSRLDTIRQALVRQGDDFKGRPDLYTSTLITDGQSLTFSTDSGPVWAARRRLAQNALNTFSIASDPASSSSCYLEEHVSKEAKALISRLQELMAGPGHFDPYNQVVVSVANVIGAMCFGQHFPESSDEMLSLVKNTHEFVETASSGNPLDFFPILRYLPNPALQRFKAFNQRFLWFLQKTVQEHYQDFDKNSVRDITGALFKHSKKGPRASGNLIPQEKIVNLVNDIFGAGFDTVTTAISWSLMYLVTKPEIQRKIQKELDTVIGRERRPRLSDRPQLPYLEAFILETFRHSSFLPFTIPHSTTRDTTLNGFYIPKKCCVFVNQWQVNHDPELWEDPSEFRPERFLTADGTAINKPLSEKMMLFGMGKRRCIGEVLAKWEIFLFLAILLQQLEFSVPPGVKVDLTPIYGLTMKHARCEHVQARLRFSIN

[13] = i.v. administration in rat, 0.5 mg/kg; Yu et al.; cited from earlier work
[14] = Table 4; Yu et al.; cited from earlier work; remark: listed apart in the source
CYP2C9 [15] = biological target: T5, CYP2C9 (Homo sapiens, UniProt P11712); conditions: Table 4; Yu et al.; cited from earlier work
mP2Y14R = biological target: T6, mP2Y14R (Mus musculus, UniProt Q9ESG6); experiment: cell-based
T6 sequence (Q9ESG6 1-338): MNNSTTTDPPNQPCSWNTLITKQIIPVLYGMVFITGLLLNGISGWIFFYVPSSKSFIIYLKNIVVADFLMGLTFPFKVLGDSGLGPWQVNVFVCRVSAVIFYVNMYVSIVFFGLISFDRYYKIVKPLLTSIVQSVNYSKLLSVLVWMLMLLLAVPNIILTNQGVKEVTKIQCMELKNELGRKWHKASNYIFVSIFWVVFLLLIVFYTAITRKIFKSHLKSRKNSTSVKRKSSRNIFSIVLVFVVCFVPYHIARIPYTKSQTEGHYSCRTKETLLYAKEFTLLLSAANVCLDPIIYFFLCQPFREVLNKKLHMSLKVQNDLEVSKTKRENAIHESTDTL
Excerpt: Desirably, receptor affinity is maintained across species, facilitating performance in in vivo preclinical testing in small animals, with the mouse being the most commonly used species in initial evaluation.

[16] = Microsomal stability, rat; assay type: in vitro ADME; conditions: Table 4
CYP2C9 [17] = biological target: T5, CYP2C9; experiment: CYP2C9 inhibition; conditions: read-out: CYP2C9 (IC50); Table 4
CYP2C19 [18] = biological target: T2, CYP2C19; experiment: CYP2C19 inhibition; assay type: in vitro ADME; conditions: Table 4
Plasma stability, rat = conditions: Table 4
in vivo = conditions: Wistar, rat, iv, 0.5 mg/kg
CYP3A4 [19] = biological target: T1, CYP3A4; experiment: CYP3A4 inhibition; assay type: in vitro ADME; conditions: Table 4
[20] = Microsomal stability, mouse; assay type: in vitro ADME; conditions: Table 4
hP2Y14R = biological target: T7, hP2Y14R (Homo sapiens, UniProt Q15391); experiment: Inhibition of fluorescent antagonist binding in whole hP2Y14R-expressing CHO cells (flow cytometry); conditions: Table 2; tracer 2 (20 nM, 45 min), CHO cells; read-out: hP2Y14R, IC50
T7 construct: expressed in transfected cells; host or cells: CHO cells
T7 sequence (Q15391 1-338): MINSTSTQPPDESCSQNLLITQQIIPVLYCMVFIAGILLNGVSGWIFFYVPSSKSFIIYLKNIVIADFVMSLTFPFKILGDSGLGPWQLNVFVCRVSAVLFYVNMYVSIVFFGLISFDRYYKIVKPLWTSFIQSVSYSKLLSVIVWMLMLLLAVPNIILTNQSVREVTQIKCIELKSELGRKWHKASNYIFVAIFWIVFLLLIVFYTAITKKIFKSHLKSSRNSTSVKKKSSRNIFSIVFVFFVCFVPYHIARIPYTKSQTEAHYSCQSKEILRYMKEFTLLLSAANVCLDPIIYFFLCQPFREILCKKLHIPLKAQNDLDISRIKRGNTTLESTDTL

[21] = Aqueous solubility, pION method; conditions: mean ± SD, Table 4
[22] = Stability in simulated intestinal fluid; conditions: Table 4
Plasma stability, mouse = conditions: Table 4
[23] = Pharmacokinetics in Wistar rats (i.v., i.p.)
CYP2D6 [24] = biological target: T3, CYP2D6; experiment: CYP2D6 inhibition; assay type: in vitro ADME; conditions: Table 4
[25] = Microsomal stability, human; conditions: Table 4
[26] = tested on: CCI-induced mechano-allodynia; experiment: Chronic constriction injury (CCI) mouse model of neuropathic pain; conditions: 10 μmol/kg, i.p., day 7 post-injury
[27] = Stability in simulated gastric fluid; conditions: Table 4
hERG ion channel = hERG ion channel (Homo sapiens, UniProt Q12809); experiment: hERG ion channel block, patch clamp assay
CYP1A2 [28] = biological target: T4, CYP1A2; experiment: CYP1A2 inhibition; assay type: in vitro ADME; conditions: Table 4

T1 sequence (P08684 whole entry): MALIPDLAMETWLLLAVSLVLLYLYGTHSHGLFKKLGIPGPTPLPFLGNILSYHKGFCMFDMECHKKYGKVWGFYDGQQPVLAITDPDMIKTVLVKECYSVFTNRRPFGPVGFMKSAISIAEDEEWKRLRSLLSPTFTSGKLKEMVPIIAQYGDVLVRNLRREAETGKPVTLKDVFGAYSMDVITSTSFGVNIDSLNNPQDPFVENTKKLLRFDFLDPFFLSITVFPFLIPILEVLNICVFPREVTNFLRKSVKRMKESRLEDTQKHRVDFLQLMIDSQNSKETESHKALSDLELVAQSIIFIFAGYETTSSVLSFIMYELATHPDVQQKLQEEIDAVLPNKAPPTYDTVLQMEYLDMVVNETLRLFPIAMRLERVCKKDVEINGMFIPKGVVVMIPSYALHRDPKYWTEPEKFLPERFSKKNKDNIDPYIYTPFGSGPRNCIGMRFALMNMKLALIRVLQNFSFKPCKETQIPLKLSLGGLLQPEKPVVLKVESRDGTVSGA
T5 sequence (P11712 whole entry): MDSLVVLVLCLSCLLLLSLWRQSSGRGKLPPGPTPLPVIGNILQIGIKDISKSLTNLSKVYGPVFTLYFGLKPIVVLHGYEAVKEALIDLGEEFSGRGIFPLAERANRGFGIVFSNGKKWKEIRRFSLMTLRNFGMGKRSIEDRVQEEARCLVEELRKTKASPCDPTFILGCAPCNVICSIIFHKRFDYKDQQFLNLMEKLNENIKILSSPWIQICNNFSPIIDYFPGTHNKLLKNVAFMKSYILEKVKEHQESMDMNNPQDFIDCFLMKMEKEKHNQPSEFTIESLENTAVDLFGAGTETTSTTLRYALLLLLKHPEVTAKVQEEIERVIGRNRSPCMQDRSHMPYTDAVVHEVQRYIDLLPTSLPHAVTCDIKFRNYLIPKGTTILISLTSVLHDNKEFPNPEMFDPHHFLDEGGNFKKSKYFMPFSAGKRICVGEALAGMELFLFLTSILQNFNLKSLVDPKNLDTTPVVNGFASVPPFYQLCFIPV
T2 sequence (P33261 whole entry): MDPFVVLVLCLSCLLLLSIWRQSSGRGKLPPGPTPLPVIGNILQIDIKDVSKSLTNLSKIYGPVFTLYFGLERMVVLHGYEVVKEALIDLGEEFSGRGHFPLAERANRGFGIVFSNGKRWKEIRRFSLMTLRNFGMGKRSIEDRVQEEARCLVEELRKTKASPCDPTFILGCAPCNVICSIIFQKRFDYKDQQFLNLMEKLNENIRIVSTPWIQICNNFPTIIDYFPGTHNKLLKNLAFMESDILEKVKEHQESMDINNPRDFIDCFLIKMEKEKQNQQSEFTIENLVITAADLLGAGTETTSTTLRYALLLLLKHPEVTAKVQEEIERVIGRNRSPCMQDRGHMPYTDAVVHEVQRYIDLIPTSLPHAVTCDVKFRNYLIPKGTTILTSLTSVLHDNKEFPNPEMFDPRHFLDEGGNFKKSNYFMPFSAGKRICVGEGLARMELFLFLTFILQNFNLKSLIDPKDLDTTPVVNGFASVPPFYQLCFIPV
T3 sequence (P10635 whole entry): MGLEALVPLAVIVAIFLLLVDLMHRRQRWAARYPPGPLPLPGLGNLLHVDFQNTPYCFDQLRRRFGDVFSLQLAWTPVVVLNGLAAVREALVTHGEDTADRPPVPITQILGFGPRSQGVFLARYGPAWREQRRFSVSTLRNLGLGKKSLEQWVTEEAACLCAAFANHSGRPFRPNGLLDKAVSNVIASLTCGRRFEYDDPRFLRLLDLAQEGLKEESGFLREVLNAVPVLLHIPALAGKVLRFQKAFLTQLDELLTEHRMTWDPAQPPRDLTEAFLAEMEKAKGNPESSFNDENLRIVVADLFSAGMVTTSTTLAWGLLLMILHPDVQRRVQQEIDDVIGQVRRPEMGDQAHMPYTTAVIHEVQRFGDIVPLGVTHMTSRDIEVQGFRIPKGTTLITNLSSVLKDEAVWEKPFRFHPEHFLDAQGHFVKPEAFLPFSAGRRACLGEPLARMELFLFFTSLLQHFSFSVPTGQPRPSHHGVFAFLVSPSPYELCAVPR
hERG ion channel, sequence (Q12809 whole entry): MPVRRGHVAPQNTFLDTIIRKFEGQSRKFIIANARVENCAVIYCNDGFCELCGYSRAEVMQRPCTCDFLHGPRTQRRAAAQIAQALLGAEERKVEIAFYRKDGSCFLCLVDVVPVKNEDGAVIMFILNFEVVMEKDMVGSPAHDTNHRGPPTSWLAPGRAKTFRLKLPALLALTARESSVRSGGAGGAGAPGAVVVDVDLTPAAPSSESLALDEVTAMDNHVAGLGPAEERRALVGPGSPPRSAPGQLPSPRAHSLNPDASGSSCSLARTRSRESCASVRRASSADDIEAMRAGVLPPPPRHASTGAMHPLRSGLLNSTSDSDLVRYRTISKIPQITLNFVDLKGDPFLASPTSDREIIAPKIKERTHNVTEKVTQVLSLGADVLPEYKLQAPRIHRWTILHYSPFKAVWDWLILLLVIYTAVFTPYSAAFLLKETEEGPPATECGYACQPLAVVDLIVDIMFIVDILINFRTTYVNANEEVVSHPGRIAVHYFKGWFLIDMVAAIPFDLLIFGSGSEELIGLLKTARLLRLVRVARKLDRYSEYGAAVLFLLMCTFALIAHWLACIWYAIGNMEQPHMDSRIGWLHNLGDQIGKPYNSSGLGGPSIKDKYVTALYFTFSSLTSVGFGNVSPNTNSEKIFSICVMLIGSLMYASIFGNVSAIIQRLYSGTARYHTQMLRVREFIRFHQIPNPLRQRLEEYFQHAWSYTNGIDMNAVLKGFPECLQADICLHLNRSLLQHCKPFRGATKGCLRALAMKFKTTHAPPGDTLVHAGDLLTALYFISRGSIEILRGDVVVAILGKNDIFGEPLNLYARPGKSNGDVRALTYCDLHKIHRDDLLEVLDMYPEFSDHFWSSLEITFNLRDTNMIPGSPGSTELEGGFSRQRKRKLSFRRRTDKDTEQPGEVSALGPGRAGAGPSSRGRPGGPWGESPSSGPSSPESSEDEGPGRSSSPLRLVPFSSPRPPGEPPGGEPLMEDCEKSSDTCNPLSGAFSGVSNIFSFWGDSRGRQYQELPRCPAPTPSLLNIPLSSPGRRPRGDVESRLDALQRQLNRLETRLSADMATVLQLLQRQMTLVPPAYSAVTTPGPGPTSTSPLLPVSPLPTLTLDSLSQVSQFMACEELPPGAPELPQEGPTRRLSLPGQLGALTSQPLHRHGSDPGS

NC(=O)c1ccc(-c2cc(C(=O)O)cc(-n3cc(-c4ccc(C(F)(F)F)cc4)nn3)c2)cc1 [Compound 5]
IC50 (CYP3A4 [1]): > 30 µM
Microsomal stability (t1/2, min) [2]: 145 min
IC50 (CYP2C19 [3]): > 30 µM
IC50 (CYP2D6 [4]): > 30 µM
aqueous solubility (pH 7.4, μg/mL) [5]: 138 ± 4 μg/mL
Plasma stability (t1/2, min) [6]: >240 (m) min
Plasma stability (t1/2, min) [7]: >240 (h); >240 (r); min
Microsomal stability (t1/2, min) [8]: 145 (h) min
Simulated gastric fluid (t1/2, min) [9]: >240 min
Plasma stability (t1/2, min) [10]: >240 (h); >240 (r); min
Microsomal stability (t1/2, min) [11]: 108 min
IC50 (CYP1A2 [12]): > 30 µM
t1/2 [13]: 12 min
Simulated intestinal fluid (t1/2, min) [14]: >240 min
IC50 (CYP2C9 [15]): > 30 µM

O=C(O)c1cc(-c2ccc(-c3cc(CO)on3)cc2)c2ccc(-c3ccc(C(F)(F)F)cc3)cc2c1 [Compound 32, 4-(4-(5-(Hydroxymethyl)isoxazol-3-yl)phenyl)-7-(4-(trifluoromethyl)phenyl)-2-naphthoic acid]
affinity at the mP2Y14R vs the human homologue (mP2Y14R; comparison of species, in words): nearly the same affinity in the two species
IC50 (mP2Y14R; read-out: mP2Y14R, IC50, Table 2, tracer 2 (20 nM, 45 min), HEK293 cells): 18.6 ± 8.4 nM
Microsomal stability (t1/2, min) [16]: 47.7 min
IC50 (CYP2C9 [17]): 10.4 µM
IC50 (CYP2C19 [18]): > 30 µM
Plasma stability (t1/2, min) (Plasma stability, rat): TBD (h); >240 (r); min
bioavailability (in vivo): 100%
IC50 (CYP3A4 [19]): > 30 µM
Microsomal stability (t1/2, min) [20]: >240 (m) min
IC50 (hP2Y14R): 15 ± 4.4 nM
aqueous solubility (pH 4.0, μg/mL) ([21]; pH 4.0): 0.14 ± 0.02 μg/mL
aqueous solubility (pH 7.4, μg/mL) ([21]; pH 7.4): 7.63 ± 1.93 μg/mL
Simulated intestinal fluid (t1/2, min) [22]: >240 min
Plasma stability (t1/2, min) (Plasma stability, mouse): >240 (m) min
t1/2 ([23]; i.v. administration in rat, 0.5 mg/kg, Table 4): 41.3 min
AUC0-last ([23]; rat, i.p., 1.0 mg/kg): 650 ng·h/mL
AUC0-∞ ([23]; rat, i.p., 1.0 mg/kg): 700 ng·h/mL
Cl ([23]; rat, i.p., 1.0 mg/kg): 1430 mL/h/kg
Cmax ([23]; rat, i.p., 1.0 mg/kg): 88.4 ng/mL
F (%) ([23]; rat, i.p., 1.0 mg/kg): 139%
Kel ([23]; rat, i.p., 1.0 mg/kg): 0.096 h⁻¹
T1/2 ([23]; rat, i.p., 1.0 mg/kg): 7.23 h
Vd (mL/kg) ([23]; rat, i.p., 1.0 mg/kg): 14,900 mL/kg
AUC0-last ([23]; rat, i.p., 3.0 mg/kg): 2060 ng·h/mL
AUC0-∞ ([23]; rat, i.p., 3.0 mg/kg): 2120 ng·h/mL
Cl ([23]; rat, i.p., 3.0 mg/kg): 1420 mL/h/kg
Cmax ([23]; rat, i.p., 3.0 mg/kg): 315 ng/mL
F (%) ([23]; rat, i.p., 3.0 mg/kg): 147%
Kel ([23]; rat, i.p., 3.0 mg/kg): 0.148 h⁻¹
T1/2 ([23]; rat, i.p., 3.0 mg/kg): 4.68 h
Vd ([23]; rat, i.p., 3.0 mg/kg): 9570 mL/kg
AUC0-last ([23]; rat, i.p., 10 mg/kg): 4900 ng·h/mL
AUC0-∞ ([23]; rat, i.p., 10 mg/kg): 4920 ng·h/mL
Cl ([23]; rat, i.p., 10 mg/kg): 2030 mL/h/kg
Cmax ([23]; rat, i.p., 10 mg/kg): 786 ng/mL
F (%) ([23]; rat, i.p., 10 mg/kg): 105%
Kel ([23]; rat, i.p., 10 mg/kg): 0.233 h⁻¹
T1/2 ([23]; rat, i.p., 10 mg/kg): 2.98 h
Vd ([23]; rat, i.p., 10 mg/kg): 8730 mL/kg
AUC0-last ([23]; rat, i.v., 0.5 mg/kg): 234 ng·h/mL
AUC0-∞ ([23]; rat, i.v., 0.5 mg/kg): 238 ng·h/mL
Cl ([23]; rat, i.v., 0.5 mg/kg): 2110 mL/h/kg
Cmax ([23]; rat, i.v., 0.5 mg/kg): 359 ng/mL
Kel ([23]; rat, i.v., 0.5 mg/kg): 1.01 h⁻¹
T1/2 ([23]; rat, i.v., 0.5 mg/kg): 0.689 h
Vd ([23]; rat, i.v., 0.5 mg/kg): 2090 mL/kg
IC50 (CYP2D6 [24]): > 30 µM
Microsomal stability (t1/2, min) [25]: > 240 min
reversal of mechano-allodynia (figure legend) [26]: reversal of CCI-induced mechano-allodynia
Simulated gastric fluid (t1/2, min) [27]: 161 min
IC50 (hERG ion channel): > 30 µM
IC50 (CYP1A2 [28]): > 30 µM

— patent US20240150290A1, “HETEROCYCLIC P2Y14 RECEPTOR ANTAGONISTS” (priority 2021, published 2024)
